From patent publication US6924298B2, “2-(3,5-Disubstituted-4-pyridyl)-4-(thienyl, thiazolyl or arylphenyl)-1,3-oxazoline compounds” (Dow AgroSciences LLC, priority 2000, dated 2005)
Like-named read-outs stand apart in the source and are kept apart here.

How the values were obtained:
Type in all cases: in vivo
[1] = test system: sweetpotato whitefly (Bemisia tabacia); assay: Insecticidal test for sweetpotato whitefly, spray on cotton plants; settings: 312 h, 200 ppm spray, large nymphs counted after 13 days, read-out: WF: activity at 200 ppm against whitefly (% Control rating)
Protocol: Insecticidal Test for Sweetpotato Whitefly (Bemisia tabacia)
Four mg of each test compound was dissolved by adding 4 mL of a 90:10 acetone:ethanol solvent mixture to the vial containing the sample compound. This solution was added to 16 mL of water containing 0.05% Tween 20 surfactant to produce 20 mL of a 200 ppm spray solution.
Five-week-old cotton plants reared in a greenhouse were stripped of all foliage except for the two uppermost true leaves that were greater than 5 cm in diameter.
These plants were then placed into a laboratory colony of whiteflies for two days for oviposition by the colony females. All whiteflies were then removed from the test plants with pressurized air. The spray solution was then applied to the test plants with a hand-held syringe fitted with hollow cone nozzle. One mL of spray solution was applied to each leaf top and bottom for a total of 4 mL per plant. Four replications of each test compound utilized a total of 16 mL spray solution. Plants were air dried and then placed in a holding chamber (28° C. and 60% RH) for 13 days. Compound efficacy was evaluated by counting, under an illuminated magnifying glass, the number of large nymphs (3rd-4th instar) per leaf.
Percent control based on reduction of large nymphs of a test compound compared to solution-only (no test compound) sprayed plants is reported in Tables 1-4.

[2] = test system: cotton aphid (Aphis gossypii); assay: Insecticidal test for cotton aphid, spray on infested squash cotyledons; settings: Aphis gossypii, 72 h, read-out: CA: activity at 50 ppm against cotton aphid (% Control rating)
Protocol: Insecticidal Test for Cotton Aphid (Aphis gossypii)
To prepare spray solutions, 1 mg of each test compound was dissolved into 1 mL of a 90:10 acetone:ethanol solvent. This 1 mL of chemical solution was added to 19 mL of water containing 0.05% Tween 20 surfactant to produce a 50 ppm spray solution.
Squash cotyledons were infested with cotton aphid (all life stages)16-20 hours prior to application of spray solution. The solution was sprayed on both sides of each infested squash cotyledon (0.5 mL×2 each side) with a sweeping action until runoff. The plants were allowed to air dry and held for 3 days in a controlled room at 26° C. and 40% RH after which time the test was graded. Grading was by actual count using a dissecting microscope and comparison of test counts to the untreated check. Results are given in Tables 1-4 as percent control based on population reduction versus the untreated.

[3] = test system: two-spotted spider mite (Tetranychus urticae); assay: Insecticidal test for two-spotted spider mite, ovicide method on cotton leaf discs; settings: Tetranychus urticae, foliar, 144 h, hatched larvae after 6 days, read-out: SM: activity against two-spotted spider mite (% Control rating)
Protocol: Insecticidal Test for Two-Spotted Spider Mite (Tetranychus urticae) Ovicide Method: Ten adult female two-spotted spider mites were placed on eight 2.2 cm leaf discs of cotton leaf, allowed to oviposit over 24 hours, and thereafter removed. […] Discs were placed on an agar substrate and held at 24° C. and 90% RH for 6 days.

[4] = test system: cabbage looper (Trichoplusia ni); assay: Insecticidal test for cabbage looper, treated cabbage leaf disc; settings: Trichoplusia ni, foliar, 120 h, read-out: CL: activity at 400 ppm against cabbage looper (% Control rating)
Protocol: (§1) Insecticidal Test for Tobacco Budworm (Heliothis virescens), Beet Armyworm (Spodoptera exigua), and Cabbage Looper (Trichoplusia ni).
(§2) To prepare the test solution, the test compound was formulated at 400 ppm in 7.5 mL of 2 acetone:1 tap water. 250 μL of the test solution was pipetted upon the surface of 8 mL of lepidopteran diet (modified Shorey) contained in each of five one-ounce plastic cups (one cup=1 replication). A second-instar beet armyworm was placed upon the treated diet in each cup once the solvent had air-dried. The solutions remaining after completing applications to the one-ounce cups were then used as leaf-dip solutions for 3.5 cm leaf discs cut from cabbage leaves and cotton cotyledons. Five discs of each type of plant were dipped until thoroughly coated into each rate of each compound (=5 replications of each treatment). After air-drying, the treated leaf discs were placed individually into one-ounce plastic cups. Each dried, treated cotton cotyledon disc was infested with a 2nd instar tobacco budworm larva, and each cabbage leaf disc was infested with a 2nd instar cabbage looper larva. Cups containing the treated substrates and larvae were capped and then held in a growth chamber at 25° C., 50-55% RH, and 14 hr light: 10 hr dark for 5 days.

[5] = test system: beet armyworm (Spodoptera exigua); assay: Insecticidal test for beet armyworm, treated lepidopteran diet; settings: Spodoptera exigua, 120 h, read-out: BAW: activity at 400 ppm against beet armyworm (% Control rating)
Protocol: as §1, §2

[6] = 50 ppm spray, squash cotyledons, all life stages, 3 days
[7] = 400 ppm, leaf-dip cabbage leaf disc, 2nd instar larvae, 5 days
[8] = 400 ppm, treated diet surface, second-instar larvae, 5 days

SMILES	pest or weed control at 200 ppm [1] [%]	pest or weed control at 50 ppm [2, 6] [%]	pest or weed control [3] [%]	pest or weed control at 400 ppm [4, 7] [%]	pest or weed control at 400 ppm [5, 8] [%]	pest or weed control at 50 ppm [2] [%]	pest or weed control at 400 ppm [4] [%]	pest or weed control at 400 ppm [5] [%]
Clc1cncc(Cl)c1C1=NC(c2ccccc2)CO1 (centres unmarked) [Compound 1]	< 50	< 50						
Clc1ccc(C2COC(c3c(Cl)cncc3Cl)=N2)cc1 (centres unmarked) [Compound 2]	< 50	90 to 100	< 50					
Fc1ccc(C2COC(c3c(Cl)cncc3Cl)=N2)cc1 (centres unmarked) [Compound 3]	80 to 89	80 to 89						
Clc1cncc(Cl)c1C1=NC(c2ccc(Br)cc2)CO1 (centres unmarked) [Compound 4, 2-(3,5-dichloro-4-pyridinyl)-4-(4-bromophenyl)oxazoline]		90 to 100	90 to 100					
FC(F)(F)Oc1ccc(-c2ccc(C3COC(c4c(Cl)cncc4Cl)=N3)cc2)cc1 (centres unmarked) [Compound 6]	< 50	90 to 100	90 to 100	90 to 100	90 to 100			
COc1ccc(-c2ccc(C3COC(c4c(Cl)cncc4Cl)=N3)cc2)cn1 (centres unmarked) [Compound 7]			90 to 100	80 to 89	60 to 69			
Cc1ccc(-c2ccc(C3COC(c4c(Cl)cncc4Cl)=N3)cc2)cc1C (centres unmarked) [Compound 8]						80 to 89	80 to 89	90 to 100
Cc1ccc(-c2ccc(C3COC(c4c(Cl)cncc4Cl)=N3)cc2)cc1 (centres unmarked) [Compound 9]						90 to 100		90 to 100
Cc1ccc(-c2ccc(C3COC(c4c(Cl)cncc4Cl)=N3)cc2)s1 (centres unmarked) [Compound 10]						60 to 69	90 to 100	80 to 89
Clc1cncc(Cl)c1C1=NC(c2ccc(I)cc2)CO1 (centres unmarked) [Compound 11, 2-(3,5-dichloro-4-pyridinyl)-4-(4-iodophenyl)oxazoline]	90 to 100	90 to 100	90 to 100					
Clc1cncc(Cl)c1C1=NC(c2ccc(-c3ccc4c(c3)OCO4)cc2)CO1 (centres unmarked) [Compound 13]		80 to 89	< 50	90 to 100	60 to 69			
Fc1ccc(-c2ccc(C3COC(c4c(Cl)cncc4Cl)=N3)cc2)cc1F (centres unmarked) [Compound 14]		60 to 69	90 to 100		80 to 89			
FC(F)(F)c1cccc(-c2ccc(C3COC(c4c(Cl)cncc4Cl)=N3)cc2)c1 (centres unmarked) [Compound 15]		< 50	< 50	90 to 100	90 to 100			
Clc1ccccc1-c1ccc(C2COC(c3c(Cl)cncc3Cl)=N2)cc1 (centres unmarked) [Compound 18]		50 to 59	< 50	80 to 89				
Fc1cccc(-c2ccc(C3COC(c4c(Cl)cncc4Cl)=N3)cc2)c1 (centres unmarked) [Compound 19]	< 50	< 50	90 to 100	60 to 69				
Clc1cccc(-c2ccc(C3COC(c4c(Cl)cncc4Cl)=N3)cc2)c1 (centres unmarked) [Compound 20]						< 50	90 to 100	
Fc1ccc(-c2ccc(C3COC(c4c(Cl)cncc4Cl)=N3)cc2)cc1 (centres unmarked) [Compound 21]	< 50	90 to 100	90 to 100		80 to 89			

SMILES	pest or weed control at 200 ppm [1] [%]	pest or weed control at 50 ppm [2, 6] [%]	pest or weed control [3] [%]	pest or weed control at 400 ppm [4, 7] [%]	pest or weed control at 400 ppm [5, 8] [%]	pest or weed control at 50 ppm [2] [%]	pest or weed control at 400 ppm [4] [%]	pest or weed control at 400 ppm [5] [%]
FC(F)(F)c1ccccc1-c1ccc(C2COC(c3c(Cl)cncc3Cl)=N2)cc1 (centres unmarked) [Compound 22]		70 to 79						
Fc1ccccc1-c1ccc(C2COC(c3c(Cl)cncc3Cl)=N2)cc1 (centres unmarked) [Compound 23]		90 to 100	90 to 100	90 to 100	60 to 69			
FC(F)(F)c1cc(-c2ccc(C3COC(c4c(Cl)cncc4Cl)=N3)cc2)cc(C(F)(F)F)c1 (centres unmarked) [Compound 24]	< 50	< 50			90 to 100			
Cc1ccccc1-c1ccc(C2COC(c3c(Cl)cncc3Cl)=N2)cc1 (centres unmarked) [Compound 25]		80 to 89		< 50	90 to 100			
Cc1ccc(-c2ccc(C3COC(c4c(Cl)cncc4Cl)=N3)cc2)cc1F (centres unmarked) [Compound 26]		60 to 69		60 to 69	60 to 69			
Clc1cncc(Cl)c1C1=NC(c2ccc(-c3ccccc3)cc2)CO1 (centres unmarked) [Compound 28]		< 50	90 to 100		80 to 89			
Cc1ccc(-c2ccc(C3COC(c4c(Cl)cncc4Cl)=N3)cc2)c(F)c1 (centres unmarked) [Compound 33]		< 50			80 to 89			
Fc1ccc(C(F)(F)F)cc1-c1ccc(C2COC(c3c(Cl)cncc3Cl)=N2)cc1 (centres unmarked) [Compound 34]		80 to 89		90 to 100	60 to 69			
CSc1ccc(-c2ccc(C3COC(c4c(Cl)cncc4Cl)=N3)cc2)cc1 (centres unmarked) [Compound 35]		< 50		90 to 100	90 to 100			
FCSc1ccc(-c2ccc(C3COC(c4c(Cl)cncc4Cl)=N3)cc2)cc1 (centres unmarked) [Compound 37]		90 to 100	< 50	60 to 69				
Fc1cncc(F)c1C1=NC(c2ccc(I)cc2)CO1 (centres unmarked) [Compound 38, 2-(3,5-difluoro-4-pyridinyl)-4-(4-iodophenyl)oxazoline]	90 to 100	< 50	90 to 100		70 to 79			
Fc1cncc(F)c1C1=NC(c2ccc(-c3ccc(OC(F)(F)F)cc3)cc2)CO1 (centres unmarked) [Compound 40]		< 50	90 to 100	90 to 100	90 to 100			
Cc1cc(Br)ccc1C1COC(c2c(Cl)cncc2Cl)=N1 (centres unmarked) [Compound 41, 4-[4-(4-bromo-2-methylphenyl)-4,5-dihydro-1,3-oxazol-2-yl]-3,5-dichloropyridine]	< 50	90 to 100	< 50					
CCOc1ccc(-c2ccc(C3COC(c4c(Cl)cncc4Cl)=N3)c(C)c2)cc1 (centres unmarked) [Compound 42]		80 to 89	90 to 100	80 to 89	90 to 100			
C[C@H]1OC(c2c(Cl)cncc2Cl)=N[C@H]1c1ccc(I)cc1 [Compound 45, 4-[4-(4′-Iodophenyl)-5-methyl-4,5-dihydro-oxazol-2-yl]-3,5-dichloropyridines]		90 to 100						
C[C@@H]1OC(c2c(Cl)cncc2Cl)=N[C@H]1c1ccc(I)cc1 [Compound 46, 4-[4-(4′-Iodophenyl)-5-methyl-4,5-dihydro-oxazol-2-yl]-3,5-dichloropyridines]		< 50	< 50					
